# Source: US10000483B2, “Bone marrow on X chromosome kinase (BMX) inhibitors and uses thereof” (Dana-Farber Cancer Institute, Inc., priority 2012, dated 2018)
# Columns and labels:
# BLK = BLK (Homo sapiens (Human), UniProt P51451); assay: DiscoverX binding assay
# Source text: (§1) Screening hits are identified by measuring the amount of protein captured in test versus control samples by using a quantitative, precise, and ultra-sensitive qPCR method that detects the associated DNA label.
# PIK4CB = PIK4CB (Homo sapiens (Human), UniProt Q9UBF8); assay: Kinase panel at 1 uM (Table 9); type: binding; conditions: read-out: % inhibition at 1 uM, PIK4CB
# Source text: as §1
# [1] = system: TEL-JAK3 transformed Ba/F3 cells; assay: cells; conditions: Mus musculus, BaF3, read-out: GI50, TEL-JAK3 (+IL-3)
# BMX = BMX (Homo sapiens (Human), UniProt P51813); assay: BMX autophosphorylation in RV-1 cells; type: cell-based
# Chain of BMX (P51813 whole entry): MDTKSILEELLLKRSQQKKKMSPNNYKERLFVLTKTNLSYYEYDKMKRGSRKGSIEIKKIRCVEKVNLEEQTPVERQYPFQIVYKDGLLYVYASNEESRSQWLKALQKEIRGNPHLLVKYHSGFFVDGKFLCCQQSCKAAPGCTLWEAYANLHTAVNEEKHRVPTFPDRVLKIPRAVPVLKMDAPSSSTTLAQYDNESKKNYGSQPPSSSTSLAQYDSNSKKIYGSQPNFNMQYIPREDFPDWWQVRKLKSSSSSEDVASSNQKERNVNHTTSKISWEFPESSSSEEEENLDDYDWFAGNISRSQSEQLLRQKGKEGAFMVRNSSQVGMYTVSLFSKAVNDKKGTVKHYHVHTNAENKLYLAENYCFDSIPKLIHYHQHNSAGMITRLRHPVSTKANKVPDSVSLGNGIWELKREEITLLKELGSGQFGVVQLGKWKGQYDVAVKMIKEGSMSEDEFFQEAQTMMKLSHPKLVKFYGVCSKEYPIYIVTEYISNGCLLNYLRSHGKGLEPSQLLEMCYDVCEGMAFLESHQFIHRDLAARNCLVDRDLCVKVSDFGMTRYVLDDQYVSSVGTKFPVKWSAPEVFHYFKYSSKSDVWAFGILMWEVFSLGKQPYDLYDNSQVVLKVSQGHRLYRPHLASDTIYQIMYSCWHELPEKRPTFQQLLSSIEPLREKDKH
# JNK1 = JNK1 (Homo sapiens (Human), UniProt P45983); assay: Kinase panel at 1 uM (Table 9); type: binding; conditions: read-out: % inhibition at 1 uM, JNK1
# Source text: as §1
# CLK2 = CLK2 (Homo sapiens (Human), UniProt P49760); assay: DiscoverX binding assay; conditions: read-out: % inhibition at 1 uM, CLK2
# Chain of CLK2 (P49760 whole entry): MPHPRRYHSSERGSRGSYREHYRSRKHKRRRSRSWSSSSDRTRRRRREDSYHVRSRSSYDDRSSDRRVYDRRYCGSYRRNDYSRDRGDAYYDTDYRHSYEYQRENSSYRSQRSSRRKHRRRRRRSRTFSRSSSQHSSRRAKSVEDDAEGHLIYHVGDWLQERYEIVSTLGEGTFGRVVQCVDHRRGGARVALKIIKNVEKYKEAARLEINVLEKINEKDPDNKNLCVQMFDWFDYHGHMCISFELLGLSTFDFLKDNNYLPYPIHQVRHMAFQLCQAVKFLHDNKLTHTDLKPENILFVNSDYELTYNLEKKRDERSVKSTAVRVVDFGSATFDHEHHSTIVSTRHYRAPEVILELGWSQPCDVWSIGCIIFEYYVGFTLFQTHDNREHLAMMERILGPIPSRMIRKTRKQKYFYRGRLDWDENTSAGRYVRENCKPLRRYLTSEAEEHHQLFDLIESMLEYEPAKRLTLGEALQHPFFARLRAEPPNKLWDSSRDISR
# Source text: as §1
# RV1 xenograft = RV1 xenograft growth; conditions: over 2 weeks, in vivo treatment; FIG. 19
# OCI-Ly19 cells = assay: Cell proliferation analysis for WM and lymphoma cell lines (CellTiter-Glo); type: cell-based; conditions: Homo sapiens, 72 hours
# Description: Various cell lines were used including Waldenström's macroglobulinemia (WM) cell lines (BCWM.1, MWCL-1, RPCI-WM1) and B-cell lymphoma cell lines (OCI-Ly3, Ramos, OCI-Ly19). Cells were seeded into 384 well plates with the EL406 Combination Washer Dispenser (BioTek Instruments, Inc.) and inhibitor compounds were injected into the cells culture media with the JANUS Automated Workstation (PerkinElmer Inc.).
# ITK = ITK (Homo sapiens (Human), UniProt Q08881); assay: DiscoverX binding assay
# Chain of ITK (Q08881 whole entry): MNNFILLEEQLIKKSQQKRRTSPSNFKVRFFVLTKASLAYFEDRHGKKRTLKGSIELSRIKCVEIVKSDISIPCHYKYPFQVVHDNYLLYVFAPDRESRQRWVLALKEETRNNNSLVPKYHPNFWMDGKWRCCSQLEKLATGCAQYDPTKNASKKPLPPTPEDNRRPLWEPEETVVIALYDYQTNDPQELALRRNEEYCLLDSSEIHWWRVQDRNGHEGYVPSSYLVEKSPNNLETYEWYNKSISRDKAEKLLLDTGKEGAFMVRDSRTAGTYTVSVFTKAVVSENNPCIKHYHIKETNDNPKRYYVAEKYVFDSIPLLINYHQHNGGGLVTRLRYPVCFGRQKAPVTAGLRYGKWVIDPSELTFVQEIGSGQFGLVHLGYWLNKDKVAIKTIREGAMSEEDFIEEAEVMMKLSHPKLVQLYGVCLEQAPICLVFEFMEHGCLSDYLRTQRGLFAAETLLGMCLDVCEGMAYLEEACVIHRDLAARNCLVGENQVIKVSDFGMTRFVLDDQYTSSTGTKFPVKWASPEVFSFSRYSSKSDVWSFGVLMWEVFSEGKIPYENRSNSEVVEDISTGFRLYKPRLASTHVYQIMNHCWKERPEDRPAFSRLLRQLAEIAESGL
# Source text: as §1
# [2] = system: TEL-BLK transformed Ba/F3 cells; assay: cells; conditions: Mus musculus, BaF3, read-out: GI50, TEL-BLK
# MEK5 = MEK5 (Homo sapiens (Human), UniProt Q13163); assay: Kinase panel at 1 uM (Table 9); type: binding; conditions: read-out: % inhibition at 1 uM, MEK5
# Chain of MEK5 (Q13163 whole entry): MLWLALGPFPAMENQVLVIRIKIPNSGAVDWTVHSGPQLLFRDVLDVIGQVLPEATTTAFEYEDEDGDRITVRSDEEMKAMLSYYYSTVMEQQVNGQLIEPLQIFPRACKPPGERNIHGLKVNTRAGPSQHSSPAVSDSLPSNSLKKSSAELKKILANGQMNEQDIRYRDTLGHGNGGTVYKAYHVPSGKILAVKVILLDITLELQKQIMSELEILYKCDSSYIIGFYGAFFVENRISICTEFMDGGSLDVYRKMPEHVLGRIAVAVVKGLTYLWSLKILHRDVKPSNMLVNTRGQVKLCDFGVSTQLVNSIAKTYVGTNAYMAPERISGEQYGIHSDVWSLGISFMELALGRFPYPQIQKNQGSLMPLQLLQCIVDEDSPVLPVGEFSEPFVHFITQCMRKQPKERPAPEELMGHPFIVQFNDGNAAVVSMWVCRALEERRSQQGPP
# Source text: as §1
# WT-Ba/F3 cells = assay: cells; conditions: Mus musculus, BaF3, read-out: GI50, WT-Ba/F3
# DYRK1A = DYRK1A (Homo sapiens (Human), UniProt Q13627); assay: Kinase panel at 1 uM (Table 9); type: binding; conditions: read-out: % inhibition at 1 uM, DYRK1A
# Source text: as §1
# JAK3 = JAK3 (Homo sapiens (Human), UniProt P52333); assay: DiscoverX binding assay
# Chain of JAK3 (P52333 whole entry): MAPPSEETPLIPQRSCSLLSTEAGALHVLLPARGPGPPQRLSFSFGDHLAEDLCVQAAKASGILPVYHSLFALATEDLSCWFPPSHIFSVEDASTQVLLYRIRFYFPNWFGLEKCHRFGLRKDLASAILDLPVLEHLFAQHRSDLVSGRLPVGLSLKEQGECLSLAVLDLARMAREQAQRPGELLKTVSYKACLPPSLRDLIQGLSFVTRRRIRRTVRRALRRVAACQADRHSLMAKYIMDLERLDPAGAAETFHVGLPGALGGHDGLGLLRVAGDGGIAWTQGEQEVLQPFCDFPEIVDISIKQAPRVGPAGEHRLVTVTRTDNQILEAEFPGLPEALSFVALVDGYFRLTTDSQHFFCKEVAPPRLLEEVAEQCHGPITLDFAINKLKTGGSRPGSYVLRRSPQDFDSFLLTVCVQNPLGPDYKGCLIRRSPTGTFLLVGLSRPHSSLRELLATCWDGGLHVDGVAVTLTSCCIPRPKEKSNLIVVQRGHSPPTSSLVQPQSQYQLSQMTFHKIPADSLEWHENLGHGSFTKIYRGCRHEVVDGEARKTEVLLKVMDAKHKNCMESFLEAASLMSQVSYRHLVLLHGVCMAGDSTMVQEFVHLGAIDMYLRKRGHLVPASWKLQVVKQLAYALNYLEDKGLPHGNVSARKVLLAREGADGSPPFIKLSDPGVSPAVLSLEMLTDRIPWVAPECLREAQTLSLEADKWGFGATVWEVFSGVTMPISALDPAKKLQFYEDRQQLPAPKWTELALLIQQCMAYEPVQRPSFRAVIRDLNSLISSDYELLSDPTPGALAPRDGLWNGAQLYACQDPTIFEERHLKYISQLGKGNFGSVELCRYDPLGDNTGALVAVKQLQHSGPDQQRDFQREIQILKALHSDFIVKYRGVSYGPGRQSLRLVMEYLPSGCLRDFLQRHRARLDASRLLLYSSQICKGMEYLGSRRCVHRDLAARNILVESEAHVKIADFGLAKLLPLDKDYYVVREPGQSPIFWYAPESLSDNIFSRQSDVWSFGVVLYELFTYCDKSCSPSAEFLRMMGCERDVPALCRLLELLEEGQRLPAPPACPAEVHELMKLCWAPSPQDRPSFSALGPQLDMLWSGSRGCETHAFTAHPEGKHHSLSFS
# Source text: as §1
# RV-1 cells = assay: Anti-proliferation assay for prostate cancer cells (CellTiter-Glo); type: cell-based
# Description: Data were normalized to control group (DMSO) and represented by the mean of at least two independent measurement with standard error <20%. GI50 were calculated using Prism 5.0 (GraphPad Software, San Diego, Calif.).
# RV1 cells = assay: Prostate cancer cell apoptosis, cleaved caspase 3; type: cell-based
# Source text: Caspase-3 positive cells were counted and normalized to total cell number (N=5).
# DYRK2 = DYRK2 (Homo sapiens (Human), UniProt Q92630); assay: Kinase panel at 1 uM (Table 9); type: binding; conditions: read-out: % inhibition at 1 uM, DYRK2
# Source text: as §1
# TEC = TEC (Homo sapiens (Human), UniProt P42680); assay: DiscoverX binding assay
# Source text: as §1
# JNK3 = JNK3 (Homo sapiens (Human), UniProt P53779); assay: Kinase panel at 1 uM (Table 9); type: binding; conditions: read-out: % inhibition at 1 uM, JNK3
# Source text: as §1
# PIK3CA(I800L) = PIK3CA(I800L) (Homo sapiens (Human), UniProt P42336, I800L); assay: Kinase panel at 1 uM (Table 9); type: binding; conditions: read-out: % inhibition at 1 uM, PIK3CA(I800L)
# Source text: as §1
# Chain of BLK (P51451 whole entry): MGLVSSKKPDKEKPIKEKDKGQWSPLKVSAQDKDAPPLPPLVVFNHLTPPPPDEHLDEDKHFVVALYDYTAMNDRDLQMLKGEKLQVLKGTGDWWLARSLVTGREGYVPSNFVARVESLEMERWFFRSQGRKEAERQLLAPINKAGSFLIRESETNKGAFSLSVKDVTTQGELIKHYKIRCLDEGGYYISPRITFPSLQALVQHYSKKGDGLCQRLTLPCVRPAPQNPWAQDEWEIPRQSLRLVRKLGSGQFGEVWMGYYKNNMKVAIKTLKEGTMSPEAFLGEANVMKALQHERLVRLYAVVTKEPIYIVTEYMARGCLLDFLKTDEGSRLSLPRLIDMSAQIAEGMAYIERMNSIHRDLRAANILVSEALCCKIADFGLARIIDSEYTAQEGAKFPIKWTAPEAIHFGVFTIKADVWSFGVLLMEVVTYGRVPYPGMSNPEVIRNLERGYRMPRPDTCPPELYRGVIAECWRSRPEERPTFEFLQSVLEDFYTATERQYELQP
# Chain of PIK4CB (Q9UBF8 whole entry): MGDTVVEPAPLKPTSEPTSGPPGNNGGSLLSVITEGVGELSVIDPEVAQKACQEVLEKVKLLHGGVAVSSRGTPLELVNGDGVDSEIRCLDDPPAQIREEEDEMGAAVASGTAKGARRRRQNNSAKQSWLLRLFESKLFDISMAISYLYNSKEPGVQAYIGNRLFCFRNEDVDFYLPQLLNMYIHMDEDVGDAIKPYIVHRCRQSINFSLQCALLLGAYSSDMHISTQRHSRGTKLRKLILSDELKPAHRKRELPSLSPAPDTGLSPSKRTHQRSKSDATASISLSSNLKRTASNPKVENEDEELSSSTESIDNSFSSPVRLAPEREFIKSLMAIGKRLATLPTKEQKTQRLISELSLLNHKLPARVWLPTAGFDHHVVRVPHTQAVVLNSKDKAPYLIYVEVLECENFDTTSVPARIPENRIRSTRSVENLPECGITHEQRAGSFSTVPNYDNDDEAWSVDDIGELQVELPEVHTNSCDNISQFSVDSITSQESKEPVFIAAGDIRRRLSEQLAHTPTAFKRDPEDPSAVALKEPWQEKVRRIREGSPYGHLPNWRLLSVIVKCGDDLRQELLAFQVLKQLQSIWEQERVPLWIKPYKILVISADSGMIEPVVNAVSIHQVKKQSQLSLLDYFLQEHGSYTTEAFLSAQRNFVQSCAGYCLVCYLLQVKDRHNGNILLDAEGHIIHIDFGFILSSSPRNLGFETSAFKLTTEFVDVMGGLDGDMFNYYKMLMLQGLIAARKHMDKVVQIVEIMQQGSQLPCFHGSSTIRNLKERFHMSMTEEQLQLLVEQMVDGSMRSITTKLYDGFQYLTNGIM
smiles,measurement,setting,value
C=CC(=O)Nc1cc(-n2c(=O)ccc3cnc4ccc(-c5ccc(NS(C)(=O)=O)cc5)cc4c32)ccc1C [I-14],"Percent Control, BLK",BLK; DiscoverX binding,40%
same,inhibition at 1 µM,"BLK; read-out: % inhibition at 1 uM, BLK",40%
same,inhibition at 1 µM,PIK4CB,79%
same,GI50,[1],7770 nM
same,concentration sufficient to inhibit BMX autophosphorylation in RV-1 cells,BMX,≤ 1 µM
same,inhibition at 1 µM,JNK1,93%
same,inhibition at 1 µM,CLK2,100%
same,RV1 xenograft growth,RV1 xenograft,decreased
same,EC50,OCI-Ly19 cells,900 nM
same,"Percent Control, ITK",ITK,52%
same,GI50,[2],3640 nM
same,inhibition at 1 µM,MEK5,100%
same,GI50,WT-Ba/F3 cells,> 10000 nM
same,inhibition at 1 µM,DYRK1A,100%
same,"Percent Control, JAK3",JAK3; DiscoverX binding,20%
same,inhibition at 1 µM,"JAK3; read-out: % inhibition at 1 uM, JAK3(JH1domain-catalytic)",6.6%
same,GI50,RV-1 cells; RV-1,2540 nM
same,IC50,"RV-1 cells; RV-1, 120 h, 5 day incubation",2530 nM
same,cell numbers and apoptosis by Caspase 3 staining,RV1 cells; 5 pM concentration (so in the source),reduced cell numbers and induced apoptosis
same,concentration causing apoptosis based on increased cleaved caspase 3,RV1 cells; FIG. 18C,10 to 20 µM
same,inhibition at 1 µM,DYRK2,100%
same,"Percent Control, TEC",TEC,27%
same,inhibition at 1 µM,JNK3,100%
same,inhibition at 1 µM,PIK3CA(I800L),46%
